Like-named read-outs stand apart in the source and are kept apart here.
Columns and labels:
Format in all cases: cell-based
[1] = test system: Salmonella typhimurium (D.S.); experiment: MIC in broth, Gram- strains; conditions: Salmonella enterica, 18 h, read-out: Minimal Inhibitory Concentration (MIC)
Procedure: (§1) MICs were determined by a standard microdilution test, using serial two-fold dilutions of the substances in Mueller-Hinton broth.
(§2) The inoculum was prepared from an overnight culture in Mueller-Hinton broth matching the 0.5 Mc Farland (turbidity) standard (BRAY W. E., Clinical Laboratory Methods, 5th Ed. C. V. MOSBY, St. Louis, Mo. 1957), and was adjusted to a final concentration of 5.0×10^4 colony-forming units/ml.
(§3) Equal volumes (0.1 ml) of both bacterial suspensions and substance solutions were distributed in microtiter plates (Falcon, 96 wells, round bottom), and then placed in a humidified incubator (37° C.) for 18 hours.
(§4) Evaluation of the Minimal Inhibitory Concentration (MIC) in broth of 16 new substances for Gram- bacterial strains.
(§5) The following strains were used: Enterobacter (1), Escherichia (3), Klebsiella (3), Proteus (3); Pseudomonas (2); Salmonella (2), Serratia (1).

[2] = test system: Klebsiella aerogenes (SH 1082); experiment: MIC in broth, Gram- strains; conditions: 18 h, read-out: Minimal Inhibitory Concentration (MIC)
Procedure: as §1, §2, §3, §4, §5

[3] = test system: Pseudomonas aeruginosa (10 E); experiment: MIC in broth, Gram- strains; conditions: 18 h, read-out: Minimal Inhibitory Concentration (MIC)
Procedure: as §1, §2, §3, §4, §5

Escherichia coli (92 F) = experiment: MIC in broth, Gram- strains; conditions: 18 h, E. coli (92 F), read-out: Minimal Inhibitory Concentration (MIC)
Procedure: as §1, §2, §3, §4, §5

Proteus mirabilis (32) = experiment: MIC in broth, Gram- strains; conditions: 18 h, read-out: Minimal Inhibitory Concentration (MIC)
Procedure: as §1, §2, §3, §4, §5

Proteus vulgaris (UM) = experiment: MIC in broth, Gram- strains; conditions: 18 h, read-out: Minimal Inhibitory Concentration (MIC)
Procedure: as §1, §2, §3, §4, §5

Proteus morganii (D.S.) = experiment: MIC in broth, Gram- strains; conditions: Morganella morganii, 18 h, read-out: Minimal Inhibitory Concentration (MIC)
Procedure: as §1, §2, §3, §4, §5

[4] = test system: Pseudomonas aeruginosa (3 E); experiment: MIC in broth, Gram- strains; conditions: 18 h, read-out: Minimal Inhibitory Concentration (MIC)
Procedure: as §1, §2, §3, §4, §5

Klebsiella oxytoca (552) = experiment: MIC in broth, Gram- strains; conditions: 18 h, read-out: Minimal Inhibitory Concentration (MIC)
Procedure: as §1, §2, §3, §4, §5

Escherichia coli (R 57B) = experiment: MIC in broth, Gram- strains; conditions: 18 h, E. coli (R 57B), read-out: Minimal Inhibitory Concentration (MIC)
Procedure: as §1, §2, §3, §4, §5

Salmonella typhi (J) = experiment: MIC in broth, Gram- strains; conditions: Salmonella enterica, 18 h, read-out: Minimal Inhibitory Concentration (MIC)
Procedure: as §1, §2, §3, §4, §5

[5] = test system: Klebsiella pneumoniae (7823); experiment: MIC in broth, Gram- strains; conditions: 18 h, read-out: Minimal Inhibitory Concentration (MIC)
Procedure: as §1, §2, §3, §4, §5

Gram+ bacterial strains = experiment: Mean MIC in broth and resistant strain number, Gram+ strains; conditions: 18 h, versus susceptible strains
Procedure: (§6) Evaluation of the Minimal Inhibitory Concentration (MIC) in broth of 15 new substances for Gram+ bacterial strains.
(§7) The following strains were used: Staphylococcus aureus (4); Streptococcus faecalis (8); Bacillus pumilus (1); Bacillus subtilis (1).
as §1, §2, §3
(§8) The results, in terms of MIC values, resistant strain number and mean MIC values versus susceptible strains, are illustrated in Tables 1-6.

[6] = test system: Bacillus pumilus (CN 607); experiment: MIC in broth, Gram+ strains; conditions: B. pumilus (CN 607), Mueller-Hinton broth, 37° C., 18 hours, read-out: Minimal Inhibitory Concentration (MIC)
Procedure: as §6, §7, §1, §2, §3, §8

[7] = test system: Staphylococcus aureus (303); experiment: MIC in broth, Gram+ strains; conditions: S. aureus (303), Mueller-Hinton broth, 37° C., 18 hours, read-out: Minimal Inhibitory Concentration (MIC)
Procedure: as §6, §7, §1, §2, §3, §8

[8] = test system: Staphylococcus aureus (ATCC 14154); experiment: MIC in broth, Gram+ strains; conditions: ATCC14154, S. aureus (ATCC 14154), Mueller-Hinton broth, 37° C., 18 hours, read-out: Minimal Inhibitory Concentration (MIC)
Procedure: as §6, §7, §1, §2, §3, §8

[9] = test system: Streptococcus faecalis (UM); experiment: MIC in broth, Gram+ strains; conditions: Enterococcus faecalis; S. faecalis (UM), Mueller-Hinton broth, 37° C., 18 hours; read-out: Minimal Inhibitory Concentration (MIC)
Procedure: as §6, §7, §1, §2, §3, §8

[10] = test system: Streptococcus faecalis (516); experiment: MIC in broth, Gram+ strains; conditions: Enterococcus faecalis; S. faecalis (516), Mueller-Hinton broth, 37° C., 18 hours; read-out: Minimal Inhibitory Concentration (MIC)
Procedure: as §6, §7, §1, §2, §3, §8

[11] = test system: Streptococcus faecalis (505); experiment: MIC in broth, Gram+ strains; conditions: Enterococcus faecalis; S. faecalis (505), Mueller-Hinton broth, 37° C., 18 hours; read-out: Minimal Inhibitory Concentration (MIC)
Procedure: as §6, §7, §1, §2, §3, §8

[12] = test system: Staphylococcus aureus (306 MR); experiment: MIC in broth, Gram+ strains; conditions: S. aureus (306 MR), Mueller-Hinton broth, 37° C., 18 hours, read-out: Minimal Inhibitory Concentration (MIC)
Procedure: as §6, §7, §1, §2, §3, §8

[13] = test system: Streptococcus faecalis (519); experiment: MIC in broth, Gram+ strains; conditions: Enterococcus faecalis; S. faecalis (519), Mueller-Hinton broth, 37° C., 18 hours; read-out: Minimal Inhibitory Concentration (MIC)
Procedure: as §6, §7, §1, §2, §3, §8

[14] = test system: Streptococcus faecalis (518); experiment: MIC in broth, Gram+ strains; conditions: Enterococcus faecalis; S. faecalis (518), Mueller-Hinton broth, 37° C., 18 hours; read-out: Minimal Inhibitory Concentration (MIC)
Procedure: as §6, §7, §1, §2, §3, §8

[15] = test system: Streptococcus faecalis (501); experiment: MIC in broth, Gram+ strains; conditions: Enterococcus faecalis; S. faecalis (501), Mueller-Hinton broth, 37° C., 18 hours; read-out: Minimal Inhibitory Concentration (MIC)
Procedure: as §6, §7, §1, §2, §3, §8

[16] = test system: Streptococcus faecalis (509); experiment: MIC in broth, Gram+ strains; conditions: Enterococcus faecalis; S. faecalis (509), Mueller-Hinton broth, 37° C., 18 hours; read-out: Minimal Inhibitory Concentration (MIC)
Procedure: as §6, §7, §1, §2, §3, §8

[17] = test system: Staphylococcus aureus (LC1); experiment: MIC in broth, Gram+ strains; conditions: S. aureus (LC1), Mueller-Hinton broth, 37° C., 18 hours, read-out: Minimal Inhibitory Concentration (MIC)
Procedure: as §6, §7, §1, §2, §3, §8

[18] = test system: Streptococcus faecalis (R 2); experiment: MIC in broth, Gram+ strains; conditions: Enterococcus faecalis; S. faecalis (R 2), Mueller-Hinton broth, 37° C., 18 hours; read-out: Minimal Inhibitory Concentration (MIC)
Procedure: as §6, §7, §1, §2, §3, §8

[19] = test system: Bacillus subtilis (ATCC 6051); experiment: MIC in broth, Gram+ strains; conditions: ATCC6051, B. subtilis (ATCC 6051), Mueller-Hinton broth, 37° C., 18 hours, read-out: Minimal Inhibitory Concentration (MIC)
Procedure: as §6, §7, §1, §2, §3, §8

Gram- bacterial strains = experiment: Mean MIC in broth and resistant strain number, Gram- strains; conditions: 18 h, read-out: Mean MIC values
Procedure: as §1, §2, §3, §4, §5

[20] = test system: Enterobacter aerogenes (UM); experiment: MIC in broth, Gram- strains; conditions: Klebsiella aerogenes, 18 h, read-out: Minimal Inhibitory Concentration (MIC)
Procedure: as §1, §2, §3, §4, §5

Row | Structure (SMILES) | MIC [1] [µg/mL] | MIC [2] [µg/mL] | MIC [3] [µg/mL] | MIC (Escherichia coli (92 F)) [µg/mL] | MIC (Proteus mirabilis (32)) [µg/mL] | MIC (Proteus vulgaris (UM)) [µg/mL] | MIC (Proteus morganii (D.S.)) [µg/mL] | MIC [4] [µg/mL] | MIC (Klebsiella oxytoca (552)) [µg/mL] | MIC (Escherichia coli (R 57B)) [µg/mL] | MIC (Salmonella typhi (J)) [µg/mL] | MIC [5] [µg/mL] | MIC (Gram+ bacterial strains) [µg/mL] | MIC [6] [µg/mL] | MIC [7] [µg/mL] | MIC [8] [µg/mL] | MIC [9] [µg/mL] | MIC [10] [µg/mL] | MIC [11] [µg/mL] | MIC [13] [µg/mL] | other results
1 | CCCCCCCCCCCOC(=O)CC(C[N+](C)(C)C)OC(=O)CCC(C)C (centres unmarked) [ST 1034] | 100 | 25 | 50 | 25 | > 100 | > 100 | 100 | 50 | 12.5 | 50 | 25 | 12.5 | 2 | 1.56 | 3.12 | 3.12 | 1.56 | 1.56 | 1.56 | 1.56 | MIC [12]: 3.12 µg/mL; MIC [14]: 1.56 µg/mL; MIC [15]: 1.56 µg/mL; MIC [16]: 1.56 µg/mL; MIC [17]: 1.56 µg/mL; MIC [18]: 1.56 µg/mL; MIC [19]: 3.12 µg/mL; MIC (Gram- bacterial strains; Gram- strains, versus susceptible strains): 45 µg/mL
2 | CCCCCCCCCCCCOC(=O)CC(C[N+](C)(C)C)OC(=O)C(C)C (centres unmarked) [ST 1038] | 25 | 50 | 100 | 25 | > 100 | 100 | 100 | 100 | 25 | 100 | 25 | 25 | 3.48 | 3.12 | 6.25 | 3.12 | 3.12 | 3.12 | 3.12 | 3.12 | MIC [20]: 25 µg/mL; MIC [14]: 3.12 µg/mL; MIC [15]: 3.12 µg/mL; MIC [16]: 3.12 µg/mL; MIC [17]: 1.56 µg/mL; MIC [18]: 3.12 µg/mL; MIC [19]: 6.25 µg/mL; MIC (Gram- bacterial strains): 41.7 µg/mL

From patent publication US5498632A, “Esters of acyl carnitines with long-chain aliphatic alcohols and pharmaceutical compositions containing same having antibacterial activity” (Sigma-Tau Industrie Farmaceutiche Riunite S.p.A., priority 1992, dated 1996)
